Experimental data from patent US7968577B2 (Bristol-Myers Squibb Company, priority 2006, dated 2011).

Tested on: AP-1 induced transcriptional activity
Test: Cellular Transrepressional Assay: AP-1 luciferase reporter in PMA-activated A549 cells
Assay type: cell-based
Details: for Emax: A549, 7 h, maximum inhibition, read-out: AP-1 Max % inh (Cellular Transrepression Assay)
Protocol: Cellular Transrepressional Assay
To measure the ability of test molecules to inhibit AP-1 induced transcriptional activity we utilized an A549 cell which was stably transfected with a plasmid containing 7× AP-1 DNA binding sites (pAP-1-Luc plasmid, Stratagene Co. La Jolla, Calif.) followed by the gene for luciferase. Cells were activated with 10 ng/ml of […] (PMA) plus or minus test molecules for 7 hours. After 7 hours a luciferase reagent was added to measure luciferase enzymatic activity in the cell. After a 10 minute incubation of luciferase reagent with cells, luminescence was measured in a TopCount luminescence counter. Repression of AP-1 activity was calculated as the percentage decrease in the signal induced by PMA alone. Test molecules were analyzed in the concentration range from 0.1 nM to 40 μM. EC50s were determined by using standard curve fitting methods such as Excel fit (Microsoft Co.).

[1] = Homo sapiens, Cellular Transrepression Assay
[2] = Homo sapiens, A549, Cellular Transrepression Assay

| SMILES | EC50 [2] | EC50 (Cellular Transrepression Assay) | Emax [1] |
| --- | --- | --- | --- |
| CC(C)(C(=O)Nc1nccs1)C(c1ccccc1)c1ccc(O)cc1 (stereo not drawn) [Example 209, 3-(4-hydroxyphenyl)-2,2-dimethyl-3-phenyl-N-1,3-thiazol-2-ylpropanamide] | 86.5 nM |  | 46.9% |
| COc1ccc(C(c2ccccc2)C(C)(C)C(=O)Nc2nc(Cc3ccc(-c4ccncc4)cc3)cs2)cc1 (stereo not drawn) [Example 289, 2,2-dimethyl-3-(4-(methyloxy)phenyl)-3-phenyl-N-(4-((4-(4-pyridinyl)phenyl)methyl)-1,3-thiazol-2-yl)propanamide] | 18.5 nM |  | 71.6% |
| CCOC(=O)c1sc(NC(=O)C(C)(C)C(c2ccccc2)c2ccc(OC)cc2)nc1C (stereo not drawn) [Example 112, ethyl 2-((2,2-dimethyl-3-(4-(methyloxy)phenyl)-3-phenylpropanoyl)amino)-4-methyl-1,3-thiazole-5-carboxylate] |  |  | 20.9% |
| CC(C)(C(=O)Nc1nc(-c2ccnc3ccccc23)cs1)C(c1ccccc1)c1ccccc1 [Example 184, 2,2-dimethyl-3,3-diphenyl-N-(4-(4-quinolinyl)-1,3-thiazol-2-yl)propanamide] |  |  | 57.5% |
| CC(C)(C(=O)Nc1nc(-c2ccc(F)cc2)cs1)C(c1ccccc1)c1ccccc1 [Example 168, N-(4-(4-fluorophenyl)-1,3-thiazol-2-yl)-2,2-dimethyl-3,3-diphenylpropanamide] |  |  | 23% |
| COc1ccc(C(c2ccc(OC)cc2)C(C)(C)C(=O)Nc2nc(C(C)(C)C)cs2)cc1 [Example 74, N-(4-(1,1-dimethylethyl)-1,3-thiazol-2-yl)-2,2-dimethyl-3,3-bis(4-(methyloxy)phenyl)propanamide] |  |  | 28.1% |
| CCOC(=O)c1sc(NC(=O)C(C)(C)C(c2ccccc2)c2ccc(O)cc2)nc1C (stereo not drawn) [Example 218, ethyl 2-((3-(4-hydroxyphenyl)-2,2-dimethyl-3-phenylpropanoyl)amino)-4-methyl-1,3-thiazole-5-carboxylate] |  |  | 38% |
| COc1cccc(C(c2ccccc2)C(C)(C)C(=O)Nc2nc(-c3ccccc3)cs2)c1 (stereo not drawn) [Example 95, 2,2-dimethyl-3-(3-(methyloxy)phenyl)-3-phenyl-N-(4-phenyl-1,3-thiaozl-2-yl)propanamide] |  |  | 36.2% |
| COc1ccc(C(c2ccccc2)C(C)(C)C(=O)Nc2nc(-c3ccccc3)cs2)cc1 (stereo not drawn) [Example 107, 2,2-dimethyl-3-(4-(methyloxy)phenyl)-3-phenyl-N-(4-phenyl-1,3-thiaozl-2-yl)propanamide] |  |  | 38.4% |
| CCOC(=O)c1sc(NC(=O)C(C)(C)C(c2ccccc2)c2cccc(O)c2)nc1C (stereo not drawn) [Example 206, ethyl 2-((3-(3-hydroxyphenyl)-2,2-dimethyl-3-phenylpropanoyl)amino)-4-methyl-1,3-thiazole-5-carboxylate] |  |  | 37.7% |
| CCOC(=O)c1sc(NC(=O)C(C)(C)C(c2ccc(O)cc2)c2ccc(O)cc2)nc1C [Example 194, ethyl 2-((3,3-bis(4-hydroxyphenyl)-2,2-dimethylpropanoyl)amino)-4-methyl-1,3-thiazole-5-carboxylate] |  |  | 25.4% |
| Cc1cccc(C(c2ccc(N3CCOCC3)cc2)C(C)(C)C(=O)Nc2nccs2)c1 (stereo not drawn) [Example 234, 2,2-dimethyl-3-(3-methylphenyl)-3-(4-(4-morpholinyl)phenyl)-N-1,3-thiazol-2-ylpropanamide] | 573 nM |  | 39% |
| CC(C)CC(c1ccc(-c2ccc(OC(C)C)cc2)cc1)C(C)(C)C(=O)Nc1nncs1 (stereo not drawn) [Example 395, 2,2,5-trimethyl-3-(4′-((1-methylethyl)oxy)-4-biphenylyl)-N-1,3,4-thiadiazol-2-ylhexanamide] | 13.4 nM |  | 32.5% |
| CC(C)(C(=O)Nc1nncs1)[C@H](c1ccccc1)c1ccc(O)cc1 [Example 340, (3R)-3-(4-hydroxyphenyl)-2,2-dimethyl-3-phenyl-N-1,3,4-thiadiazol-2-ylpropanamide] | 90.3 nM |  | 57% |
| CC(=O)c1ccc(C(c2ccccc2)C(C)(C)C(=O)Nc2nncs2)cc1 (stereo not drawn) [Example 369, 3-(4-acetylphenyl)-2,2-dimethyl-3-phenyl-N-1,3,4-thiadiazol-2-ylpropanamide] | 819 nM |  | 34.9% |
| COc1cccc2sc(NC(=O)C(C)(C)C(c3ccccc3)c3ccccc3)nc12 [Example 46, 2,2-dimethyl-N-(4-(methyloxy)-1,3-benzothiazol-2-yl)-3,3-diphenylpropanamide] |  |  | 22.9% |
| CC(C)(C(=O)Nc1nccs1)C(c1ccccc1)c1cccc(O)c1 (stereo not drawn) [Example 197, 3-(3-hydroxyphenyl)-2,2-dimethyl-3-phenyl-N-1,3-thiazol-2-ylpropanamide] |  |  | 36.3% |
| CCCCOc1ccc(-c2ccc(C(CC(C)C)C(C)(C)C(=O)Nc3nncs3)cc2)cc1 (stereo not drawn) [Example 442, 3-(4′-butoxy-4-biphenylyl)-2,2,5-trimethyl-N-1,3,4-thiadiazol-2-ylhexanamide] | 11.7 nM |  | 22.7% |

More lines, main results first:

| EC50 [2] | EC50 (Cellular Transrepression Assay) | SMILES | Emax [1] |
| --- | --- | --- | --- |
| 7.9 nM |  | CC(C)(C(=O)Nc1nncs1)C(c1ccccc1)c1ccc(-c2ccccc2)cc1 (stereo not drawn) [Example 402, 3-(4-biphenylyl)-2,2-dimethyl-3-phenyl-N-1,3,4-thiadiazol-2-ylpropanamide] | 26.5% |
| 6.07 nM |  | CC(C)c1cccc(-c2ccc(C(c3ccccc3)C(C)(C)C(=O)Nc3nncs3)cc2)c1 (stereo not drawn) [Example 423, 3-(3′-isopropyl-4-biphenylyl)-2,2-dimethyl-3-phenyl-N-1,3,4-thiadiazol-2-ylpropanamide] | 34.8% |
| 417 nM |  | COc1ccc(Cc2csc(NC(=O)C(C)(C)C(c3ccccc3)c3cccc(OC)c3)n2)cc1 (stereo not drawn) [Example 298, 2,2-dimethyl-3-(3-(methyloxy)phenyl)-N-(4-((4-(methyloxy)phenyl)methyl)-1,3-thiazol-2-yl)-3-phenylpropanamide] | 78.7% |
| 15 nM |  | CC(C)(C(=O)Nc1nccs1)[C@@H](c1ccccc1)c1ccc(O)c(Br)c1 [Example 350, (3S)-3-(3-bromo-4-hydroxyphenyl)-2,2-dimethyl-3-phenyl-N-1,3-thiazol-2-ylpropanamide] | 81.8% |
| 88.1 nM |  | CC(C)(C(=O)Nc1nc(Cc2ccc(-c3ccncc3)cc2)cs1)C(c1ccccc1)c1ccc(N2CCOCC2)cc1 (stereo not drawn) [Example 223, 2,2-dimethyl-3-(4-(4-morpholinyl)phenyl)-3-phenyl-N-(4-((4-(4-pyridinyl)phenyl)methyl)-1,3-thiazol-2-yl)propanamide] | 70.8% |
| 772 nM |  | CCOC(=O)c1csc(NC(=O)C(C)(C)[C@H](c2ccccc2)c2ccc(OC)cc2)n1 [Example 264, ethyl 2-((2,2-dimethyl-3-(4-(methyloxy)phenyl)-3-phenylpropanoyl)amino)-1,3-thiazole-4-carboxylate] | 58.6% |
| 10.3 nM |  | COc1ccc([C@H](c2ccccc2)C(C)(C)C(=O)Nc2nc(Cc3ccc(-c4ccncc4)cc3)cs2)cc1 (stereo in doubt) [Example 291, 2,2-dimethyl-3-(4-(methyloxy)phenyl)-3-phenyl-N-(4-((4-(4-pyridinyl)phenyl)methyl)-1,3-thiazol-2-yl)propanamide] | 74.3% |
| 516 nM |  | CC(C)(C(=O)Nc1nc(-c2cccc3ccccc23)cs1)C(c1ccccc1)c1ccc(O)cc1 (stereo not drawn) [Example 217, 3-(4-hydroxyphenyl)-2,2-dimethyl-N-(4-(1-naphthalenyl)-1,3-thiazol-2-yl)-3-phenylpropanamide] | 35% |
|  | 35.2 nM | CC(C)(C(=O)Nc1nccs1)C(c1ccccc1)c1ccc(O)c(F)c1 (stereo not drawn) [Example 345, 3-(3-fluoro-4-hydroxyphenyl)-2,2-dimethyl-3-phenyl-N-1,3-thiazol-2-ylpropanamide] | 68.1% |
| 3.03 nM |  | CC(C)(C(=O)Nc1nncs1)C(c1ccccc1)c1ccc(-c2ccc(Cl)cc2)cc1 (stereo not drawn) [Example 403, 3-(4′-chloro-4-biphenylyl)-2,2-dimethyl-3-phenyl-N-1,3,4-thiadiazol-2-ylpropanamide] | 24.9% |
| 14.9 nM |  | CCc1ccc(-c2ccc(C(c3ccccc3)C(C)(C)C(=O)Nc3nncs3)cc2)cc1 (stereo not drawn) [Example 407, 3-(4′-ethyl-4-biphenylyl)-2,2-dimethyl-3-phenyl-N-1,3,4-thiadiazol-2-ylpropanamide] | 37.5% |
| 33.5 nM |  | CC(C)(C(=O)Nc1nccs1)C(c1ccc(N2CCOCC2)cc1)c1cccc(F)c1 (stereo not drawn) [Example 228, 3-(3-fluorophenyl)-2,2-dimethyl-3-(4-(4-morpholinyl)phenyl)-N-1,3-thiazol-2-ylpropanamide] | 36.9% |
| 70 nM |  | CCCc1ccc(-c2ccc(C(CC(C)C)C(C)(C)C(=O)Nc3nccs3)cc2)cc1 (stereo not drawn) [Example 398, 2,2,5-trimethyl-3-(4′-propyl-4-biphenylyl)-N-1,3-thiazol-2-ylhexanamide] | 28.2% |
| 121 nM |  | COc1ccc(-c2ccc(C(c3ccccc3)C(C)(C)C(=O)Nc3nccs3)cc2)cc1 (stereo not drawn) [Example 374, 2,2-Dimethyl-3-(4′-(methyloxy)-4-biphenylyl)-3-phenyl-N-1,3-thiazol-2-ylpropanamide] | 39.7% |
| 144 nM |  | CC(C)(C(=O)Nc1nc(Cc2ccc(-c3ccncc3)cc2)cs1)C(c1ccccc1)c1cccc(O)c1 (stereo not drawn) [Example 357] | 73.7% |
| 19.9 nM |  | COc1ccc(C(c2ccc(OC)cc2)C(C)(C)C(=O)Nc2nc(Cc3ccc(-c4ccncc4)cc3)cs2)cc1 [Example 304, 2,2-dimethyl-3,3-bis(4-(methyloxy)phenyl)-N-(4-((4-(4-pyridinyl)phenyl)methyl)-1,3-thiazol-2-yl)propanamide] | 74.5% |
